Assay: mn = molality of the nth substance listed, in mol/kg
Conditions: 101 kPa, Liquid; for molar conductivity: Alternating current cell with electrodes; for mass density: Vibrating tube method

Cc1cccc(C(=O)O)c1[O-].[Na+] [sodium 2-hydroxy-3-methylbenzoate] + O
Conditions	mass density, 298.15 K [kg/m3]	molar conductivity, 278.15 K [S·m2/mol]	molar conductivity, 283.15 K [S·m2/mol]	molar conductivity, 288.15 K [S·m2/mol]	molar conductivity, 293.15 K [S·m2/mol]	molar conductivity, 298.15 K [S·m2/mol]	molar conductivity, 303.15 K [S·m2/mol]	molar conductivity, 308.15 K [S·m2/mol]	molar conductivity, 313.15 K [S·m2/mol]
m1 = 0.0001789	–	0.004702	0.005436	0.006213	0.007035	0.007891	0.008781	0.009702	0.01065
m1 = 0.0004159	–	0.004659	0.005386	0.006159	0.006975	0.007824	0.008709	0.009625	0.01056
m1 = 0.0007115	–	0.004632	0.005354	0.006119	0.006928	0.007773	0.008653	0.009562	0.01049
m1 = 0.001003	–	0.004611	0.00533	0.006091	0.006896	0.007731	0.008606	0.009511	0.01044
m1 = 0.001322	–	0.004591	0.005306	0.00606	0.006862	0.007698	0.00857	0.00947	0.0104
m1 = 0.001698	–	0.004566	0.005277	0.006032	0.00683	0.007665	0.008535	0.009432	0.01036
m1 = 0.002088	–	0.004547	0.005256	0.006008	0.006803	0.007632	0.008498	0.009395	0.01031
m1 = 0.002646	–	0.004526	0.005232	0.005981	0.006772	0.007599	0.008457	0.009327	0.01024
m1 = 0.003288	–	0.004504	0.005206	0.005951	0.006738	0.007542	0.008399	0.009286	0.0102
m1 = 0.004113	–	0.004483	0.005178	0.005905	0.006688	0.007504	0.008356	0.00924	0.01015
m1 = 0.005007	997.408	0.004457	0.00514	0.005873	0.00665	0.007462	0.008307	0.009184	0.01009
m1 = 0.09201	1003.59	–	–	–	–	–	–	–	–

Cc1ccc(C(=O)[O-])c(O)c1.[Na+] [sodium 2-hydroxy-4-methylbenzoate] + O
Conditions	mass density, 298.15 K [kg/m3]	molar conductivity, 278.15 K [S·m2/mol]	molar conductivity, 283.15 K [S·m2/mol]	molar conductivity, 288.15 K [S·m2/mol]	molar conductivity, 293.15 K [S·m2/mol]	molar conductivity, 298.15 K [S·m2/mol]	molar conductivity, 303.15 K [S·m2/mol]	molar conductivity, 308.15 K [S·m2/mol]	molar conductivity, 313.15 K [S·m2/mol]
m1 = 0.0008766	–	0.004463	0.005159	0.005899	0.006679	0.007495	0.008345	0.009213	0.01012
m1 = 0.001205	–	0.004451	0.005145	0.00588	0.006648	0.007462	0.008308	0.009184	0.01008
m1 = 0.001572	–	0.004436	0.005122	0.005855	0.006629	0.007439	0.008283	0.009158	0.01005
m1 = 0.001976	–	0.004416	0.005105	0.005835	0.006608	0.007414	0.008258	0.009136	0.01003
m1 = 0.002453	–	0.004401	0.005087	0.005815	0.006584	0.007387	0.008225	0.009092	0.009964
m1 = 0.00301	–	0.004382	0.005065	0.00579	0.006555	0.007356	0.008178	0.009044	0.009933
m1 = 0.003696	–	0.004364	0.005044	0.005765	0.006518	0.007314	0.008146	0.009009	0.009892
m1 = 0.004538	–	0.004345	0.005022	0.005734	0.006493	0.007285	0.008112	0.008969	0.009844
m1 = 0.005464	997.441	0.004332	0.004993	0.005707	0.006462	0.007251	0.008073	0.008927	0.009798
m1 = 0.09872	1004.12	–	–	–	–	–	–	–	–

O=C([O-])c1ccccc1.[Na+] [sodium benzoate] + O
Conditions	mass density, 298.15 K [kg/m3]	molar conductivity, 278.15 K [S·m2/mol]	molar conductivity, 283.15 K [S·m2/mol]	molar conductivity, 288.15 K [S·m2/mol]	molar conductivity, 293.15 K [S·m2/mol]	molar conductivity, 298.15 K [S·m2/mol]	molar conductivity, 303.15 K [S·m2/mol]	molar conductivity, 308.15 K [S·m2/mol]	molar conductivity, 313.15 K [S·m2/mol]
m1 = 0.0002136	–	0.004828	0.005584	0.006384	0.007233	0.00812	0.009043	0.01	0.01098
m1 = 0.0004649	–	0.00479	0.005542	0.006339	0.007182	0.008063	0.008982	0.009936	0.01091
m1 = 0.0007334	–	0.004765	0.005514	0.006308	0.007149	0.008027	0.00894	0.009881	0.01085
m1 = 0.0009986	–	0.004746	0.005493	0.006283	0.007122	0.007986	0.008891	0.009829	0.0108
m1 = 0.001299	–	0.00473	0.005474	0.006253	0.007089	0.007958	0.00886	0.009801	0.01078
m1 = 0.0016	–	0.004708	0.005448	0.006234	0.007064	0.007933	0.008837	0.00977	0.01073
m1 = 0.001996	–	0.00469	0.005428	0.006211	0.007037	0.007901	0.008801	0.009733	0.01071
m1 = 0.002488	–	0.004671	0.005407	0.00619	0.00701	0.007872	0.00877	0.009663	0.01063
m1 = 0.003107	–	0.004649	0.00538	0.006164	0.006978	0.007811	0.008706	0.009625	0.01059
m1 = 0.003832	–	0.004634	0.005362	0.006129	0.006945	0.007796	0.008683	0.009598	0.01055
m1 = 0.00495	997.26	0.004604	0.00532	0.006084	0.006895	0.007742	0.008623	0.009539	0.01048
m1 = 0.08466	1001.94	–	–	–	–	–	–	–	–
